In brackets after ≈: the same amount, converted by molar mass. Read-outs that look alike come from different tables or passages of the source. Marks after values point to notes of the source that are not given here.
Experiments:
[1] = tested on: HSV-1 strain F; assay: microbe, parasite or virus in culture; type: cell-based, herpes simplex virus; settings: Human alphaherpesvirus 1, HFF
[2] = tested on: HSV-1 TK− strain DM2.1; assay: microbe, parasite or virus in culture; type: cell-based, herpes simplex virus; settings: Human alphaherpesvirus 1, HFF
[3] = tested on: CV strain delta crmA (TK+); assay: microbe, parasite or virus in culture; type: cell-based; settings: Cowpox virus, Vero, read-out: CV delta crmA EC50 (TK+)
[4] = tested on: CV strain TK:GFP lacZ (TK−); assay: microbe, parasite or virus in culture; type: cell-based; settings: Cowpox virus, Vero, read-out: CV TK:GFP lacZ EC50 (TK−)
[5] = tested on: HSV-1 strain E377; set-up: species or system BALB/c mice; settings: mouse, in vivo
[6] = in vitro; settings: human
[7] = tested on: vaccinia virus (Copenhagen Strain); assay: microbe, parasite or virus in culture; type: cell-based
[8] = tested on: cowpox virus (Brighton strain); assay: microbe, parasite or virus in culture; type: cell-based; settings: HFF, read-out: CV (Brighton) EC50
[9] = tested on: HFF cells; assay: cells; type: cell-based; settings: Homo sapiens, 72 h, read-out: IC50, 50% inhibition of cell proliferation
[10] = tested on: vaccinia IHD strain; set-up: species or system BALB/c mice; settings: mouse, in vivo
[11] = tested on: cowpox Brighton Strain; set-up: species or system BALB/c mice; settings: mouse, in vivo
[12] = tested on: cowpox Brighton Strain; set-up: species or system BALB/c mice; settings: mouse, in vivo; remark: listed apart in the source
[13] = tested on: vaccinia WR strain; set-up: species or system BALB/c mice; settings: mouse, in vivo
[14] = tested on: vaccinia (WR strain); set-up: species or system mice; Mean Lung Virus Titer: unit not given here; settings: mouse, in vivo
[15] = tested on: vaccinia (HID strain); set-up: species or system mice; Mean Lung Virus Titer: unit not given here; settings: mouse, in vivo
[16] = tested on: ΔcrmA (TK+) CV strain; assay: microbe, parasite or virus in culture; type: cell-based; settings: Cowpox virus, HFF, read-out: EC50 CV (Δcrm lacZ) TK+
[17] = tested on: TK:GFP lacZ (TK−) CV strain; assay: microbe, parasite or virus in culture; type: cell-based; settings: Cowpox virus, HFF, read-out: EC50 CV (TK:gpf lacZ)
[18] = tested on: WR strain of VV; assay: microbe, parasite or virus in culture; type: cell-based; settings: Orthopoxvirus vaccinia, HFF, 24 h, read-out: EC50 for inhibiting VV DNA synthesis
[19] = tested on: VV strain WR; set-up: species or system BALB/c mice; settings: mouse, in vivo, ip, 15 mg/kg
[20] = tested on: HFF cells; settings: human
[21] = biological target: purified VV TK (Vaccinia virus, UniProt P68564)
[22] = read-out: EC50 HSV-1 (DM2.1) TK−
[23] = read-out: HSV-1 DM2.1 EC50 (TK−)

**Q.** With Nc1nc2c(ncn2COCCO)c(=O)[nH]1 [ACV, acyclovir] as the molecule, how does the EC50 ([1]; read-out: EC50 HSV-1 (F) TK+) read?
**A.** 0.3 µg/mL (≈ 1.33 µM)

**Q.** What about the EC50 ([1]; read-out: HSV-1 F EC50 (TK+)) of the same molecule?
**A.** 0.35 ± 0.2 µg/mL (≈ 1.55 µM)

**Q.** What about the EC50 [2, 22] of the same molecule?
**A.** > 100 µg/mL

**Q.** What about the EC50 [2, 23] of the same molecule?
**A.** > 100 µg/mL

**Q.** And the EC50 [3]?
**A.** > 30 µg/mL

**Q.** What about the EC50 [4] of the same molecule?
**A.** > 30 µg/mL

**Q.** And the Mortality % [5]?
**A.** 0%

**Q.** What about the “Mortality No. dead/total no.” value [5] of the same molecule?
**A.** 0/15

**Q.** What about the CC50 [6] of the same molecule?
**A.** > 100 µg/mL

**Q.** Which EC50 ([1]; read-out: HSV-1 F EC50 (TK+)) does the source give for Nc1ncnc2c1ncn2[C@@H]1O[C@H](CO)[C@@H](O)[C@@H]1O [AraA, vidarabine] here?
**A.** 6.4 ± 3.4 µg/mL (≈ 23.9 µM)

**Q.** What about the EC50 [2, 23] of the same molecule?
**A.** 4.9 µg/mL (≈ 18.3 µM)

**Q.** What about the EC50 [3] of the same molecule?
**A.** 0.91 ± 0.005 µg/mL (≈ 3.41 µM)

**Q.** And the EC50 [4]?
**A.** 0.78 ± 0.2 µg/mL (≈ 2.92 µM)

**Q.** And the CC50 [6]?
**A.** > 100 µg/mL

**Q.** For O=c1[nH]c(=O)n([C@@H]2O[C@H](CO)[C@@H](O)[C@@H]2O)cc1/C=C/Br [BVAU, sorivudine], which EC50 ([1]; read-out: HSV-1 F EC50 (TK+)) is on record?
**A.** 0.05 ± 0.02 µg/mL (≈ 0.143 µM)

**Q.** What about the EC50 [2, 23] of the same molecule?
**A.** > 100 µg/mL

**Q.** And the EC50 [3]?
**A.** > 30 µg/mL

**Q.** And the EC50 [4]?
**A.** > 30 µg/mL

**Q.** And the CC50 [6]?
**A.** > 100 µg/mL

**Q.** Which results are given for O=c1[nH]c(=O)n([C@H]2C[C@H](O)[C@@H](CO)O2)cc1/C=C/Br [BVDU, brivudin]?
**A.** EC50 ([1]; read-out: HSV-1 F EC50 (TK+)): 0.09 µg/mL (≈ 0.27 µM); EC50 [2, 23]: 100 µg/mL (≈ 300 µM); EC50 [3]: > 30 µg/mL; EC50 [4]: > 30 µg/mL; CC50 [6]: > 100 µg/mL

**Q.** Which results are given for O=c1[nH]c(=O)n([C@H]2C[C@H](O)[C@@H](CO)O2)cc1Br [BrdU, 5-bromodeoxyuridine]?
**A.** EC50 ([1]; read-out: HSV-1 F EC50 (TK+)): 1.6 ± 0.2 µg/mL (≈ 5.21 µM); EC50 [2, 23]: 39 ± 6.3 µg/mL (≈ 127 µM); EC50 [3]: 0.37 µg/mL (≈ 1.2 µM); EC50 [4]: 19 µg/mL (≈ 61.9 µM); CC50 [6]: > 100 µg/mL

**Q.** Which results are given for Nc1ccn(C[C@@H](CO)OCP(=O)(O)O)c(=O)n1 [CDV, cidofovir]?
**A.** VV (Copenhagen) EC50 [7]: 3.3 ± 0.3 µg/mL; EC50 ([7]; Orthopoxvirus vaccinia, HFF, read-out: VV (Copenhagen) EC50): 3 µg/mL (≈ 10.7 µM); EC50 [8]: 4.4 ± 0.6 µg/mL (≈ 15.8 µM); IC50 [9]: 20 ± 7 µg/mL (≈ 71.6 µM); Mortality Number [10]: 0/15; Mortality Percent [10]: 0%; Mortality % ([10]; ip, 15 mg/kg): 0%; Mortality No. dead/total no. ([10]; ip, 15 mg/kg): 0/15; Mortality Number [11]: 0/15; Mortality Percent [11]: 0%; Mortality % ([11]; ip, 15 mg/kg): 0%; Mortality No. dead/total no. ([11]; ip, 15 mg/kg): 0/15; Number of Survivors [12]: 10/10; Number of Survivors [13]: 10/10; MDD (mean day of death of mice that died prior to day 21) [14]: 8.0 days; Mean Lung Virus Titer [14]: 7.0 ± 0.2; Survivors/Total [14]: 9/10***; MDD, mean day of death [15]: >21*** day; Mean Lung Virus Titer [15]: 4.7 ± 0.6; Survivors/Total [15]: 10/10***; EC50 ([1]; read-out: EC50 HSV-1 (F) TK+): 1.5 ± 1.1 µg/mL (≈ 5.37 µM); EC50 ([1]; read-out: HSV-1 F EC50 (TK+)): 1.5 ± 1.1 µg/mL (≈ 5.37 µM); EC50 [2, 22]: 1.5 ± 1.4 µg/mL (≈ 5.37 µM); EC50 [2, 23]: 1.5 ± 1.4 µg/mL (≈ 5.37 µM); EC50 [3]: 16.1 ± 0.3 µg/mL (≈ 57.7 µM); EC50 [4]: 3.3 ± 2.3 µg/mL (≈ 11.8 µM); EC50 [16]: 3.5 ± 3.3 µg/mL (≈ 12.5 µM); EC50 [17]: 4.2 ± 3.9 µg/mL (≈ 15 µM); EC50 [18]: 3 µg/mL (≈ 10.7 µM); Mortality % [19]: 0%; Mortality No. dead/total no. [19]: 0/15; CC50 [20]: >100 ± 0 µg/mL; Toxicity CC50 [20]: >100 ± 0 µg/mL; Vmax [21]: <0.025 µM/min/mg; CC50 [6]: > 100 µg/mL

**Q.** With Nc1nc(=O)n([C@@H]2O[C@H](CO)[C@@H](O)[C@@H]2F)cc1I [FIAC, fiacitabine] as the molecule, how does the EC50 ([1]; read-out: HSV-1 F EC50 (TK+)) read?
**A.** 0.06 ± 0.02 µg/mL (≈ 0.162 µM)

**Q.** And the EC50 [2, 23]?
**A.** 8 ± 1.3 µg/mL (≈ 21.6 µM)

**Q.** And the EC50 [3]?
**A.** 18 ± 0.25 µg/mL (≈ 48.5 µM)

**Q.** And the EC50 [4]?
**A.** 9.2 ± 3.7 µg/mL (≈ 24.8 µM)

**Q.** And the Vmax [21]?
**A.** <0.14 µM/min/mg

**Q.** And the CC50 [6]?
**A.** > 100 µg/mL
